From patent US7067494B2, “Antimitotic eleuthesides” (The University of British Columbia, priority 2001, dated 2006)

System: cells which regularly divide in culture (e.g. cancer cells)
Test: cell based antimitotic (mitotic arrest) assay using antibodies specific for mitotic cells
Conditions: for IC50: cell based mitotic assay
Description: Methods suitable for assaying antimitotic activity of compounds of this invention or compounds used as precursors, may be based on the use of antibodies specific for mitotic cells, such as those described in the international patent application published Apr. 1, 1999 under WO 99/15157 or the assay described in WO 01/38339. Such an assay will typically employ cells which regularly divide in culture (e.g. cancer cells). A known antimitotic compound such as nocodazole may be used as a control. In the assay, determination of the cells which proceed to mitosis is carried out using any of the known immunological methods by employing antibodies which have specificity for mitotic cells. […] Other examples are the monoclonal antibodies recognizing phospho-epitopes in the paired helical filament proteins (PHF) found in brain tissue of patients suffering from Alzheiner's disease as described in: PCT International Application published Jul. 4, 1996 under No. WO 96/20218; and, Vincent et al. (1996) “The Journal of Cell Biology”, 132:413–425. TG-3 antibody described in the latter two references may be obtained from Albert Einstein College of Medicine of Yeshiva University, Bronx, N.Y. This antibody is highly specific for mitotic cells and functions in ELISA.
Immunological methods useful for determination of mitotic cells in an assay include any method for determining antibody-antigen binding, including: immunocytochemistry (e.g. immunofluorescence), flow cytometry, immunoblotting, and ELISA, including those described in Vincent, I. et al. [supra]. High throughput testing of samples may be readily achieved by use of the ELISA or the ELICA assays described in WO 01/38339.

Row | Molecule | IC50 | antimitotic activity relative to eleutherobin (fold less active) (compared with eleutherobin)
1 | 2′3′-dihdro-eleutherobin [Compound 10] | 20 µM | –
2 | 5,6,11β,12-tetrahydro eleutherobin [Compound 9] | 0.2 µM | –
3 | CCO[C@]12C=C[C@](C)(O1)[C@@H](OC(=O)/C=C/c1cn(C)cn1)C[C@H]1C(CO)=CC[C@H](C(C)C)[C@H]1/C=C\2COC1OCC(O)C(O)C1OC(C)=O (stereo partly drawn) [Compound 7, 17-hydroxyeleutheside] | 0.02 µM | –
4 | CO[C@]12CC[C@](C)(O1)[C@@H](OC(=O)CCc1cn(C)cn1)C[C@@H]1[C@H](/C=C\2COC2OCC(O)C(O)C2OC(C)=O)[C@@H](C(C)C)CC[C@@H]1C (stereo partly drawn) [Compound 8, hexahydroeleutherobin] | > 10 µM | more than five thousand fold less active than eleutherobin
5 | CO[C@]12C=C[C@](C)(O1)[C@@H](OC(=O)/C=C/c1cn(C)cn1)C[C@H]1C(C)=CC[C@H](C(C)C)[C@H]1/C=C\2COC1OCC(O)C(O)C1OC(C)=O (stereo partly drawn) [eleutherobin, reference compound] | 0.02 µM | –
